Measurements: ChEMBL document CHEMBL3046822, “Synthesis, antiplatelet aggregation activity, and molecular modeling study of novel substituted-piperazine analogues” (2011)
The source made the active and inactive calls. The rule behind the calls is not given here.

Columns and labels:
Platelet [1] = assay: Antiaggregating activity in Homo sapiens (human) platelet rich plasma assessed as inhibition of collagen-induced platelet aggregation at 10 uM incubated for 4 min prior to collagen-induction measured for 5.5 min by turbidometric analysis; format: functional, cell-free
[2] = Antiaggregating activity in Homo sapiens (human) platelet rich plasma assessed as collagen-induced platelet aggregation at 1 uM incubated for 4 min prior to collagen-induction measured for 5.5 min by turbidometric analysis (reference value: 50 to 98%); format: functional
[3] = Antiaggregating activity in Homo sapiens (human) platelet rich plasma assessed as arachidonic acid-induced platelet aggregation at 1 uM incubated for 4 min prior to arachidonic acid-induction measured for 5.5 min by turbidometric analysis (reference value: 55 to 100%); format: functional
Platelet [4] = assay: Antiaggregating activity in Homo sapiens (human) platelet rich plasma assessed as inhibition of arachidonic acid-induced platelet aggregation at 20 uM incubated for 4 min prior to arachidonic acid-induction measured for 5.5 min by turbidometric analysis; format: functional, cell-free
Platelet [5] = assay: Antiaggregating activity in Homo sapiens (human) platelet rich plasma assessed as inhibition of adrenaline-induced platelet aggregation at 1 uM incubated for 4 min prior to adrenaline-induction measured for 5.5 min by turbidometric analysis; format: functional, cell-free
Platelet [6] = assay: Antiaggregating activity in Homo sapiens (human) platelet rich plasma assessed as ADP-induced platelet aggregation at 20 uM incubated for 4 min prior to ADP-induction measured for 5.5 min by turbidometric analysis (reference value: 54 to 88%); format: functional
[7] = Antiaggregating activity in Homo sapiens (human) platelet rich plasma assessed as ristocetin-induced platelet aggregation at 1 uM incubated for 4 min prior to ristocetin-induction measured for 5.5 min by turbidometric analysis (reference value: 65 to 99%); format: functional
[8] = Antiaggregating activity in Homo sapiens (human) platelet rich plasma assessed as ristocetin-induced platelet aggregation at 10 uM incubated for 4 min prior to ristocetin-induction measured for 5.5 min by turbidometric analysis (reference value: 65 to 99%); format: functional
[9] = Antiaggregating activity in Homo sapiens (human) platelet rich plasma assessed as ristocetin-induced platelet aggregation at 5 uM incubated for 4 min prior to ristocetin-induction measured for 5.5 min by turbidometric analysis (reference value: 65 to 99%); format: functional
Platelet [10] = assay: Antiaggregating activity in Homo sapiens (human) platelet rich plasma assessed as inhibition of adrenaline-induced platelet aggregation at 10 uM incubated for 4 min prior to adrenaline-induction measured for 5.5 min by turbidometric analysis; format: functional, cell-free
Platelet [11] = assay: Antiaggregating activity in Homo sapiens (human) platelet rich plasma assessed as inhibition of arachidonic acid-induced platelet aggregation at 5 uM incubated for 4 min prior to arachidonic acid-induction measured for 5.5 min by turbidometric analysis; format: functional, cell-free
[12] = Antiaggregating activity in Homo sapiens (human) platelet rich plasma assessed as ADP-induced platelet aggregation at 1 uM incubated for 4 min prior to ADP-induction measured for 5.5 min by turbidometric analysis (reference value: 54 to 88%); format: functional
Platelet [13] = assay: Antiaggregating activity in Homo sapiens (human) platelet rich plasma assessed as inhibition of ristocetin-induced platelet aggregation at 20 uM incubated for 4 min prior to ristocetin-induction measured for 5.5 min by turbidometric analysis; format: functional, cell-free
Platelet [14] = assay: Antiaggregating activity in Homo sapiens (human) platelet rich plasma assessed as inhibition of ADP-induced platelet aggregation at 10 uM incubated for 4 min prior to ADP-induction measured for 5.5 min by turbidometric analysis; format: functional, cell-free
Platelet [15] = assay: Antiaggregating activity in Homo sapiens (human) platelet rich plasma assessed as inhibition of collagen-induced platelet aggregation at 20 uM incubated for 4 min prior to collagen-induction measured for 5.5 min by turbidometric analysis; format: functional, cell-free
Platelet [16] = assay: Antiaggregating activity in Homo sapiens (human) platelet rich plasma assessed as inhibition of adrenaline-induced platelet aggregation at 20 uM incubated for 4 min prior to adrenaline-induction measured for 5.5 min by turbidometric analysis; format: functional, cell-free
Platelet [17] = assay: Antiaggregating activity in Homo sapiens (human) platelet rich plasma assessed as inhibition of arachidonic acid-induced platelet aggregation at 10 uM incubated for 4 min prior to arachidonic acid-induction measured for 5.5 min by turbidometric analysis; format: functional, cell-free
Platelet [18] = assay: Antiaggregating activity in Homo sapiens (human) platelet rich plasma assessed as inhibition of adrenaline-induced platelet aggregation at 5 uM incubated for 4 min prior to adrenaline-induction measured for 5.5 min by turbidometric analysis; format: functional, cell-free
Platelet [19] = assay: Antiaggregating activity in Homo sapiens (human) platelet rich plasma assessed as inhibition of collagen-induced platelet aggregation at 5 uM incubated for 4 min prior to collagen-induction measured for 5.5 min by turbidometric analysis; format: functional, cell-free
[20] = Antiaggregating activity in Homo sapiens (human) platelet rich plasma assessed as ADP-induced platelet aggregation at 5 uM incubated for 4 min prior to ADP-induction measured for 5.5 min by turbidometric analysis (reference value: 54 to 88%); format: functional
[21] = Antiaggregating activity in Homo sapiens (human) platelet rich plasma assessed as disaggregation of ristocetin-induced platelet aggregation at 0.25 uM incubated for 4 min prior to ristocetin-induction measured for 5.5 min by turbidometric analysis relative to control; format: functional
Platelet [22] = assay: Antiaggregating activity in Homo sapiens (human) platelet rich plasma assessed as inhibition of collagen-induced platelet aggregation at 0.5 uM incubated for 4 min prior to collagen-induction measured for 5.5 min by turbidometric analysis; format: functional, cell-free
Platelet [23] = assay: Antiaggregating activity in Homo sapiens (human) platelet rich plasma assessed as inhibition of adrenaline-induced platelet aggregation at 0.5 uM incubated for 4 min prior to adrenaline-induction measured for 5.5 min by turbidometric analysis; format: functional, cell-free
[24] = Antiaggregating activity in Homo sapiens (human) platelet rich plasma assessed as collagen-induced platelet aggregation at 0.1 uM incubated for 4 min prior to collagen-induction measured for 5.5 min by turbidometric analysis (reference value: 50 to 98%); format: functional
Platelet [25] = assay: Antiaggregating activity in Homo sapiens (human) platelet rich plasma assessed as inhibition of ADP-induced platelet aggregation at 1 uM incubated for 4 min prior to ADP-induction measured for 5.5 min by turbidometric analysis; format: functional, cell-free
Platelet [26] = assay: Antiaggregating activity in Homo sapiens (human) platelet rich plasma assessed as inhibition of collagen-induced platelet aggregation at 1 uM incubated for 4 min prior to collagen-induction measured for 5.5 min by turbidometric analysis; format: functional, cell-free
Platelet [27] = assay: Antiaggregating activity in Homo sapiens (human) platelet rich plasma assessed as inhibition of arachidonic acid-induced platelet aggregation at 1 uM incubated for 4 min prior to arachidonic acid-induction measured for 5.5 min by turbidometric analysis; format: functional, cell-free
Platelet [28] = assay: Antiaggregating activity in Homo sapiens (human) platelet rich plasma assessed as inhibition of arachidonic acid-induced platelet aggregation at 0.25 uM incubated for 4 min prior to arachidonic acid-induction measured for 5.5 min by turbidometric analysis; format: functional, cell-free
Platelet [29] = assay: Antiaggregating activity in Homo sapiens (human) platelet rich plasma assessed as inhibition of ADP-induced platelet aggregation at 0.5 uM incubated for 4 min prior to ADP-induction measured for 5.5 min by turbidometric analysis; format: functional, cell-free
Platelet [30] = assay: Antiaggregating activity in Homo sapiens (human) platelet rich plasma assessed as inhibition of arachidonic acid-induced platelet aggregation at 0.5 uM incubated for 4 min prior to arachidonic acid-induction measured for 5.5 min by turbidometric analysis; format: functional
[31] = Antiaggregating activity in Homo sapiens (human) platelet rich plasma assessed as disaggregation of ADP-induced platelet aggregation at 0.25 uM incubated for 4 min prior to ADP-induction measured for 5.5 min by turbidometric analysis relative to control; format: functional
[32] = Antiaggregating activity in Homo sapiens (human) platelet rich plasma assessed as disaggregation of ristocetin-induced platelet aggregation at 0.5 uM incubated for 4 min prior to ristocetin-induction measured for 5.5 min by turbidometric analysis relative to control; format: functional
Platelet [33] = assay: Antiaggregating activity in Homo sapiens (human) platelet rich plasma assessed as inhibition of adrenaline-induced platelet aggregation at 0.1 uM incubated for 4 min prior to adrenaline-induction measured for 5.5 min by turbidometric analysis; format: functional, cell-free
Platelet [34] = assay: Antiaggregating activity in Homo sapiens (human) platelet rich plasma assessed as inhibition of arachidonic acid-induced platelet aggregation at 0.1 uM incubated for 4 min prior to arachidonic acid-induction measured for 5.5 min by turbidometric analysis; format: functional, cell-free
Platelet [35] = assay: Antiaggregating activity in Homo sapiens (human) platelet rich plasma assessed as inhibition of adrenaline-induced platelet aggregation at 0.25 uM incubated for 4 min prior to adrenaline-induction measured for 5.5 min by turbidometric analysis; format: functional, cell-free
Platelet [36] = assay: Antiaggregating activity in Homo sapiens (human) platelet rich plasma assessed as inhibition of collagen-induced platelet aggregation at 0.25 uM incubated for 4 min prior to collagen-induction measured for 5.5 min by turbidometric analysis; format: functional
[37] = Antiaggregating activity in Homo sapiens (human) platelet rich plasma assessed as ristocetin-induced platelet aggregation at 0.1 uM incubated for 4 min prior to ristocetin-induction measured for 5.5 min by turbidometric analysis (reference value: 65 to 99%); format: functional
[38] = Antiaggregating activity in Homo sapiens (human) platelet rich plasma assessed as ADP-induced platelet aggregation at 0.1 uM incubated for 4 min prior to ADP-induction measured for 5.5 min by turbidometric analysis (reference value: 54 to 88%); format: functional
[39] = Antiaggregating activity in Homo sapiens (human) platelet rich plasma assessed as collagen-induced platelet aggregation at 0.125 uM incubated for 4 min prior to collagen-induction measured for 5.5 min by turbidometric analysis (reference value: 50 to 98%); format: functional
Platelet [40] = assay: Antiaggregating activity in Homo sapiens (human) platelet rich plasma assessed as inhibition of adrenaline-induced platelet aggregation at 0.125 uM incubated for 4 min prior to adrenaline-induction measured for 5.5 min by turbidometric analysis; format: functional, cell-free
[41] = Antiaggregating activity in Homo sapiens (human) platelet rich plasma assessed as ristocetin-induced platelet aggregation at 0.5 uM incubated for 4 min prior to ristocetin-induction measured for 5.5 min by turbidometric analysis (reference value: 65 to 99%); format: functional
[42] = Antiaggregating activity in Homo sapiens (human) platelet rich plasma assessed as ristocetin-induced platelet aggregation at 0.125 uM incubated for 4 min prior to ristocetin-induction measured for 5.5 min by turbidometric analysis (reference value: 65 to 99%); format: functional
Platelet [43] = assay: Antiaggregating activity in Homo sapiens (human) platelet rich plasma assessed as inhibition of arachidonic acid-induced platelet aggregation at 0.125 uM incubated for 4 min prior to arachidonic acid-induction measured for 5.5 min by turbidometric analysis; format: functional, cell-free
Platelet [44] = assay: Antiaggregating activity in Homo sapiens (human) platelet rich plasma assessed as inhibition of ADP-induced platelet aggregation at 0.25 uM incubated for 4 min prior to ADP-induction measured for 5.5 min by turbidometric analysis; format: functional, cell-free
[45] = Antiaggregating activity in Homo sapiens (human) platelet rich plasma assessed as disaggregation of ADP-induced platelet aggregation at 0.125 uM incubated for 4 min prior to ADP-induction measured for 5.5 min by turbidometric analysis relative to control; format: functional
[46] = Antiaggregating activity in Homo sapiens (human) platelet rich plasma assessed as disaggregation of arachidonic acid-induced platelet aggregation at 0.25 uM incubated for 4 min prior to arachidonic acid-induction measured for 5.5 min by turbidometric analysis relative to control; format: functional
[47] = Antiaggregating activity in Homo sapiens (human) platelet rich plasma assessed as disaggregation of arachidonic acid-induced platelet aggregation at 0.5 uM incubated for 4 min prior to arachidonic acid-induction measured for 5.5 min by turbidometric analysis relative to control; format: functional
[48] = Antiaggregating activity in Homo sapiens (human) platelet rich plasma assessed as collagen-induced platelet aggregation at 0.25 uM incubated for 4 min prior to collagen-induction measured for 5.5 min by turbidometric analysis (reference value: 50 to 98%); format: functional
[49] = Antiaggregating activity in Homo sapiens (human) platelet rich plasma assessed as arachidonic acid-induced platelet aggregation at 0.1 uM incubated for 4 min prior to arachidonic acid-induction measured for 5.5 min by turbidometric analysis (reference value: 55 to 100%); format: functional
[50] = Antiaggregating activity in Homo sapiens (human) platelet rich plasma assessed as ADP-induced platelet aggregation at 0.25 uM incubated for 4 min prior to ADP-induction measured for 5.5 min by turbidometric analysis (reference value: 54 to 88%); format: functional
[51] = Antiaggregating activity in Homo sapiens (human) platelet rich plasma assessed as ristocetin-induced platelet aggregation at 0.25 uM incubated for 4 min prior to ristocetin-induction measured for 5.5 min by turbidometric analysis (reference value: 65 to 99%); format: functional
[52] = Antiaggregating activity in Homo sapiens (human) platelet rich plasma assessed as ADP-induced platelet aggregation at 0.5 uM incubated for 4 min prior to ADP-induction measured for 5.5 min by turbidometric analysis (reference value: 54 to 88%); format: functional

SMILES | inhibition (Platelet [5]) | Activity [7] [%] | Activity [21] [%] | inhibition (Platelet [22]) | inhibition (Platelet [23]) | Activity [24] [%] | inhibition (Platelet [25]) | inhibition (Platelet [26]) | inhibition (Platelet [27]) | inhibition (Platelet [28]) | inhibition (Platelet [29]) | inhibition (Platelet [30]) | inhibition (Platelet [33]) | inhibition (Platelet [35]) | inhibition (Platelet [36]) | Activity [37] [%] | Activity [38] [%] | Activity [41] [%] | further results
O=C(c1ccc[n+](Cc2ccc(Br)cc2)c1)N1CCN(c2ncccn2)CC1.[Br-] | Active | 60 |  |  |  |  |  |  |  |  |  |  |  |  |  |  |  |  | inhibition (Platelet [1]): Active; Activity [2]: 64%; Activity [3]: 52%; inhibition (Platelet [4]): Active; inhibition (Platelet [6]): Active; Activity [8]: 27%; Activity [9]: 43%; inhibition (Platelet [10]): Active; inhibition (Platelet [11]): Active; Activity [12]: 60%; inhibition (Platelet [13]): Active; inhibition (Platelet [14]): Active; inhibition (Platelet [15]): Active; inhibition (Platelet [16]): Active; inhibition (Platelet [17]): Active; inhibition (Platelet [18]): Active; inhibition (Platelet [19]): Active; Activity [20]: 64%
Br.O=C(C1CCCN(Cc2ccc([N+](=O)[O-])cc2)C1)N1CCN(c2ccccc2Cl)CC1 (stereo not given) | Active | 23 | 58 | Active | Active | 58 | Active | Active | Active | Active | Active | Active | Active | Active | Active | 66 | 57 |  | Activity [31]: 28%; Activity [32]: 50%; inhibition (Platelet [34]): Active
Cl.O=C(C1CCCN(Cc2ccc(F)cc2)C1)N1CCN(c2ccccc2Cl)CC1 (stereo not given) | Active | 40 | 68 | Active | Active |  | Active | Active | Active | Active | Active | Active |  | Active | Active |  |  | 67 | Activity [39]: 72%; inhibition (Platelet [40]): Active; Activity [42]: 100%; inhibition (Platelet [43]): Active; inhibition (Platelet [44]): Active; Activity [45]: 80%
Br.O=C(C1CCCN(Cc2ccc(Br)cc2)C1)N1CCN(c2ccccn2)CC1 (stereo not given) | Active | 24 |  | Active | Active | 67 | Active | Active | Active |  |  |  | Active | Active |  | 91 | 76 | 63 | Activity [46]: 22%; Activity [47]: 28%; Activity [48]: 64%; Activity [49]: 72%; Activity [50]: 65%; Activity [51]: 81%; Activity [52]: 18%
